Test: xn = mol fraction of the nth substance listed

CCCC[N+](CCCC)(CCCC)Cc1ccccc1.[Cl-] + O=C(O)[C@@H]1CCCN1 + O
electrical conductivity [S/m], 101 kPa
Conditions | 298.15 K | 303.15 K | 308.15 K
x2 = 1.802e-05, x1 = 1.802e-05 | 0.0132 | 0.0149 | 0.0164
x2 = 1.804e-05, x1 = 5.406e-05 | 0.0279 | 0.0297 | 0.0314
x2 = 1.805e-05, x1 = 9.009e-05 | 0.0321 | 0.0338 | 0.0353
x2 = 4.506e-05, x1 = 1.802e-05 | 0.0156 | 0.0164 | 0.0176
x2 = 4.509e-05, x1 = 5.405e-05 | 0.0298 | 0.0313 | 0.0329
x2 = 4.511e-05, x1 = 9.009e-05 | 0.0339 | 0.0356 | 0.0372
x2 = 7.21e-05, x1 = 1.802e-05 | 0.0169 | 0.0183 | 0.0197
x2 = 7.214e-05, x1 = 5.405e-05 | 0.0314 | 0.0327 | 0.0341
x2 = 7.218e-05, x1 = 9.009e-05 | 0.0353 | 0.0367 | 0.0387
x2 = 9.913e-05, x1 = 1.802e-05 | 0.0184 | 0.0206 | 0.0213
x2 = 9.919e-05, x1 = 5.405e-05 | 0.0329 | 0.0335 | 0.0354
x2 = 9.925e-05, x1 = 9.008e-05 | 0.0368 | 0.0383 | 0.0409
x2 = 0.0001262, x1 = 1.802e-05 | 0.0209 | 0.0219 | 0.0229
x2 = 0.0001262, x1 = 5.405e-05 | 0.0337 | 0.0349 | 0.0366
x2 = 0.0001263, x1 = 9.008e-05 | 0.0384 | 0.0398 | 0.0423
x2 = 0.0001532, x1 = 1.802e-05 | 0.0223 | 0.0239 | 0.0251
x2 = 0.0001533, x1 = 5.405e-05 | 0.0345 | 0.0358 | 0.0381
x2 = 0.0001534, x1 = 9.008e-05 | 0.0395 | 0.0416 | 0.0445

CCCC[N+](CCCC)(CCCC)CCCC.O=[N+]([O-])[O-] + CCCCCCCCCCCCOS(=O)(=O)[O-].[Na+] + O
viscosity [mPa·s], 100 kPa
Conditions | x2 = 1.81e-06, x1 = 0.0001802 | x2 = 3.61e-06, x1 = 0.0001802 | x2 = 5.42e-06, x1 = 0.0001802 | x2 = 7.23e-06, x1 = 0.0001802 | x2 = 9.04e-06, x1 = 0.0001802 | x2 = 1.084e-05, x1 = 0.0001802 | x2 = 1.265e-05, x1 = 0.0001802 | x2 = 1.446e-05, x1 = 0.0001802 | x2 = 1.626e-05, x1 = 0.0001802 | x2 = 1.807e-05, x1 = 0.0001802
293.15 K | 1.012 | 1.013 | 1.014 | 1.014 | 1.015 | 1.016 | 1.017 | 1.018 | 1.018 | 1.018
298.15 K | 0.898 | 0.9 | 0.901 | 0.902 | 0.902 | 0.903 | 0.903 | 0.903 | 0.904 | 0.904
303.15 K | 0.797 | 0.798 | 0.798 | 0.8 | 0.8 | 0.801 | 0.801 | 0.801 | 0.801 | 0.801
308.15 K | 0.709 | 0.71 | 0.712 | 0.713 | 0.713 | 0.713 | 0.713 | 0.714 | 0.714 | 0.714
313.15 K | 0.643 | 0.644 | 0.644 | 0.644 | 0.645 | 0.645 | 0.645 | 0.645 | 0.645 | 0.646
318.15 K | 0.597 | 0.597 | 0.597 | 0.598 | 0.598 | 0.598 | 0.598 | 0.598 | 0.599 | 0.599

CCO + CC[n+]1ccn(C)c1.[I-]
Conditions | electrical conductivity [S/m]
298.15 K, 100 kPa, x2 = 0 | 5.54e-05

CCCCCC[N+]1(C)CCCC1.O=S(=O)([N-]S(=O)(=O)C(F)(F)F)C(F)(F)F + CCC[N+]1(C)CCCC1.O=S(=O)([N-]S(=O)(=O)C(F)(F)F)C(F)(F)F
101 kPa
Conditions | electrical conductivity, 313.15 K [S/m] | electrical conductivity, 353.15 K [S/m] | viscosity, 313.15 K [mPa·s] | viscosity, 353.15 K [mPa·s]
x1 = 0.25 | 0.581 | – | 38.6 | –
x1 = 0.5 | – | 1.23 | – | 13.2

CC[n+]1ccn(C)c1.O=C([O-])[C@@H]1CCCN1 + CC[n+]1ccn(C)c1.N#C[C-](C#N)C#N
Conditions | viscosity [mPa·s]
298.15 K, 101 kPa, x2 = 0 | 1195

CCO + C[C@H](N)C(=O)[O-].C[N+](C)(C)CCO
100 kPa, x2 = 0
Conditions | viscosity [mPa·s]
288.13 K | 1.15
289.34 K | 1.12
290.55 K | 1.1
291.74 K | 1.06
292.92 K | 1.03
294.1 K | 1.01
295.28 K | 0.98
296.45 K | 0.96
297.63 K | 0.93
298.8 K | 0.9
299.98 K | 0.88
301.16 K | 0.85
302.33 K | 0.82
303.51 K | 0.8
304.68 K | 0.77
305.86 K | 0.73
307.04 K | 0.71
308.21 K | 0.68

CCCCCC[N+]1(C)CCCC1.O=S(=O)([N-]S(=O)(=O)C(F)(F)F)C(F)(F)F + O=S1(=O)CCCC1
101.33 kPa, x1 = 0.5
Conditions | viscosity [mPa·s]
303.25 K | 30.7
313.25 K | 22.1
323.25 K | 16.4
333.15 K | 12.2
343.15 K | 9
353.15 K | 7.2

CCO + CC[n+]1ccccc1.N#C[N-]C#N
Conditions | viscosity [mPa·s]
288.15 K, 100 kPa, x1 = 1 | 1.29

CCO + CS(=O)(=O)[O-].C[N+](C)(CCO)CCO
101 kPa, x2 = 0
Conditions | viscosity [mPa·s]
298.15 K | 1.102
303.15 K | 1.002
308.15 K | 0.915
313.15 K | 0.837
318.15 K | 0.768
323.15 K | 0.706

CCC[N+]1(C)CCCCC1.[Br-] + O + CCCC[N+]1(C)CCCCC1.[Br-]
101 kPa
Conditions | viscosity [mPa·s]
298.15 K, x1 = 0.00449, x3 = 0.004485 | 1.305
298.15 K, x2 = 0.9578, x1 = 0.01421 | 2.565
303.15 K, x1 = 0.00449, x3 = 0.004485 | 1.135
303.15 K, x2 = 0.9577, x1 = 0.02117 | 2.165
303.15 K, x2 = 0.9734, x1 = 0.00893 | 1.615
308.15 K, x2 = 0.9733, x1 = 0.01334 | 1.355

O=S(=O)([N-]S(=O)(=O)C(F)(F)F)C(F)(F)F.[Rb+] + O=S(=O)([N-]S(=O)(=O)C(F)(F)F)C(F)(F)F.[Li+]
100 kPa, x2 = 0.25
Conditions | viscosity [mPa·s]
452.5 K | 47.7
463 K | 36.9
483.1 K | 22.7
523.6 K | 10.2
531.9 K | 8.55

100 kPa, frequency 1 MHz, x2 = 0.25
Conditions | electrical conductivity [S/m]
512.5 K | 2.82
531.5 K | 3.59

CCC[N+]1(C)CCCCC1.[Br-] + O + CC[N+]1(C)CCCCC1.[Br-]
Conditions | viscosity [mPa·s]
293.15 K, 101 kPa, x3 = 0.00299, x1 = 0.005976 | 1.575

CC(C)C[P+](C)(CC(C)C)CC(C)C.Cc1ccc(S(=O)(=O)[O-])cc1 + O=S1(=O)CCCC1
101.33 kPa, x1 = 0.5
Conditions | viscosity [mPa·s]
303.18 K | 216
313.18 K | 122
323.15 K | 69
333.13 K | 44.4
343.09 K | 27.4
353.11 K | 18.5

Source: the CheMixHub ionic liquid set
